Assay results from ChEMBL document CHEMBL4382254, “Design, synthesis, structure-activity relationships and mechanism of action of new quinoline derivatives as potential antitumor agents” (Eur J Med Chem, 2019).
Active and inactive are the calls of the source. The rule behind the calls is not given here.

Legend:
SK-OV-3 = test: Cytotoxicity against human SKOV3 cells after 48 hrs by MTT assay; format: functional, cell-based; settings: SK-OV-3, 48 h
HCT-116 [1] = test: Induction of apoptosis in human HCT116 cells assessed as increase in early apoptotic cells after 24 hrs by Annexin V-FITC/propidium iodide staining based flow cytometry; format: functional, cell-based
HCT-116 [2] = test: Anticancer activity against human HCT116 cells xenografted in […] mouse assessed as tumor growth inhibition at 80 mg/kg administered once every 3 days for 21 days; format: functional, organism-based
HCT-116 [3] = test: Induction of morphological changes in human HCT116 cells assessed as cell shrinkage at 5 to 10 uM after 24 hrs by phase contrast microscopic analysis; format: functional, cell-based
HCT-116 [4] = test: Inhibition of colony formation in human HCT116 cells after 24 hrs by crystal violet staining based assay; format: functional, cell-based
HCT-116 [5] = test: Induction of apoptosis in human HCT116 cells assessed as necrotic cells at 5 uM after 24 hrs by Annexin V-FITC/propidium iodide staining based flow cytometry (reference value: 3.46 to 9.31%); format: functional
HCT-116 [6] = test: Induction of autophagy in human HCT116 cells expressing GFP-LC3 assessed as increase in LC3 puncta formation at 10 uM after 24 hrs by fluorescence microscopic analysis; format: functional, cell-based
DLD-1 [7] = test: Inhibition of colony formation in human DLD1 cells after 24 hrs by crystal violet staining based assay; format: functional, cell-based
RKO [8] = test: Cytotoxicity against human RKO cells assessed as reduction in cell viability at 5 uM incubated for 24 hrs followed by compound washout by CCK8 assay; format: functional, cell-based; settings: TDE = time-dependent effect
HCT-116 [9] = test: Induction of apoptosis in human HCT116 cells assessed as increase in late apoptotic cells after 24 hrs by Annexin V-FITC/propidium iodide staining based flow cytometry; format: functional, cell-based
HCT-116 [10] = test: Induction of apoptosis in human HCT116 cells assessed as viable cells at 5 uM after 24 hrs by Annexin V-FITC/propidium iodide staining based flow cytometry (reference value: 73.26 to 87.19%); format: functional; settings: HCT-116, 24 h, read-out: Activity
HCT-116 [11] = test: Induction of apoptosis in P53-deficient human HCT116 cells assessed as necrotic cells at 5 uM after 24 hrs by Annexin V-FITC/propidium iodide staining based flow cytometry (reference value: 4.45%); format: functional
FHC [12] = test: Cytotoxicity against human FHC cells assessed as reduction in cell viability at 5 uM incubated for 24 hrs by CCK8 assay; format: cell-based
HCT-116 [13] = test: Cell cycle arrest in human HCT116 cells assessed as accumulation at G2/M phase at 5 uM after 48 hrs by propidium iodide staining based flow cytometry (reference value: 11.24%); format: functional
HCT-116 [14] = test: Induction of apoptosis in P53-deficient human HCT116 cells assessed as increase in Bax expression at 2.5 to 20 uM after 24 hrs by immunoblot analysis; format: functional, cell-based
HCT-116 [15] = test: Cell cycle arrest in human HCT116 cells assessed as accumulation at S phase at 5 uM after 48 hrs by propidium iodide staining based flow cytometry (reference value: 6.79%); format: functional
HCT-116 [16] = test: Induction of apoptosis in human HCT116 cells assessed as viable cells at 2.5 uM after 24 hrs by Annexin V-FITC/propidium iodide staining based flow cytometry (reference value: 87.19%); format: functional; settings: HCT-116, 24 h, read-out: Activity
[17] = Solubility of the compound in water; format: physicochemical
BGC-823 = test: Cytotoxicity against human BGC823 cells after 48 hrs by MTT assay; format: functional, cell-based; settings: BGC-823, 48 h
HCT-116 [18] = test: Cytotoxicity against human HCT116 cells after 48 hrs by MTT assay; format: functional, cell-based; settings: HCT-116, 48 h
[19] = biological target: Cellular tumor antigen p53 (Homo sapiens) (UniProt P04637); test: Activation of P53 in human HCT116 cells assessed as increase in Bax expression at 2.5 to 20 uM after 24 hrs by immunoblot analysis; format: cell-based
HCT-116 [20] = test: Induction of apoptosis in human HCT116 cells assessed as late apoptotic cells at 5 uM after 24 hrs by Annexin V-FITC/propidium iodide staining based flow cytometry (reference value: 6.08 to 11.92%); format: functional
HCT-116 [21] = test: Induction of apoptosis in human HCT116 cells assessed as increase in cleaved PARP level after 24 hrs in presence of pan-caspase inhibitor z-VAD-FMK by immunoblot analysis; format: functional, cell-based
HCT-116 [22] = test: Induction of apoptosis in P53-deficient human HCT116 cells assessed as decrease in PARP expression at 2.5 to 20 uM after 24 hrs by immunoblot analysis; format: functional, cell-based
RKO [23] = test: Cytotoxicity against human RKO cells after 48 hrs by MTT assay; format: functional, cell-based
HCT-116 [24] = test: Induction of apoptosis in human HCT116 cells assessed as necrotic cells at 2.5 uM after 24 hrs by Annexin V-FITC/propidium iodide staining based flow cytometry (reference value: 3.46%); format: functional
HCT-116 [25] = test: Induction of apoptosis in human HCT116 cells assessed as late apoptotic cells at 2.5 uM after 24 hrs by Annexin V-FITC/propidium iodide staining based flow cytometry (reference value: 6.08%); format: functional
DLD-1 [26] = test: Cytotoxicity against human DLD1 cells assessed as reduction in cell viability at 5 uM incubated for 24 hrs followed by compound washout by CCK8 assay; format: functional, cell-based; settings: TDE = time-dependent effect
DLD-1 [27] = test: Induction of morphological changes in human DLD1 cells assessed as reduction in cell number at 5 to 10 uM after 24 hrs by phase contrast microscopic analysis; format: functional, cell-based
HCT-116 [28] = test: Cell cycle arrest in human HCT116 cells assessed as accumulation at G0/G1 phase at 5 uM after 48 hrs by propidium iodide staining based flow cytometry (reference value: 82.16%); format: functional
HCT-116 [29] = test: Cytotoxicity against P53-deficient human HCT116 cells assessed as reduction in cell viability measured after 24 hrs by CCK8 assay; format: functional, cell-based; settings: HCT-116, 24 h
FHC [30] = test: Cytotoxicity against human FHC cells assessed as reduction in cell viability at 10 to 20 uM incubated for 24 hrs by CCK8 assay; format: cell-based
HCT-116 [31] = test: Induction of apoptosis in human HCT116 cells assessed as early apoptotic cells at 2.5 uM after 24 hrs by Annexin V-FITC/propidium iodide staining based flow cytometry (reference value: 3.32%); format: functional
HCT-116 [32] = test: Induction of apoptosis in P53-deficient human HCT116 cells assessed as early apoptotic cells at 5 uM after 24 hrs by Annexin V-FITC/propidium iodide staining based flow cytometry (reference value: 5.96%); format: functional
RKO [33] = test: Induction of morphological changes in human RKO cells assessed as reduction in cell number at 5 to 10 uM after 24 hrs by phase contrast microscopic analysis; format: functional, cell-based
HCT-116 [34] = test: Induction of apoptosis in Bax-deficient human HCT116 cells assessed as late apoptotic cells at 5 uM after 24 hrs by Annexin V-FITC/propidium iodide staining based flow cytometry (reference value: 14.67%); format: functional
HCT-116 [35] = test: Induction of apoptosis in human HCT116 cells assessed as necrotic cells at 2.5 to 5 uM after 24 hrs in presence of pan-caspase inhibitor z-VAD-FMK by Annexin V-FITC/propidium iodide staining based flow cytometry (reference value: 1.83%); format: functional
HCT-116 [36] = test: Inhibition of colony formation in Bax-deficient human HCT116 cells after 24 hrs by crystal violet staining based assay; format: functional, cell-based

Sequence of Cellular tumor antigen p53 (Homo sapiens) (P04637 whole entry, looked up): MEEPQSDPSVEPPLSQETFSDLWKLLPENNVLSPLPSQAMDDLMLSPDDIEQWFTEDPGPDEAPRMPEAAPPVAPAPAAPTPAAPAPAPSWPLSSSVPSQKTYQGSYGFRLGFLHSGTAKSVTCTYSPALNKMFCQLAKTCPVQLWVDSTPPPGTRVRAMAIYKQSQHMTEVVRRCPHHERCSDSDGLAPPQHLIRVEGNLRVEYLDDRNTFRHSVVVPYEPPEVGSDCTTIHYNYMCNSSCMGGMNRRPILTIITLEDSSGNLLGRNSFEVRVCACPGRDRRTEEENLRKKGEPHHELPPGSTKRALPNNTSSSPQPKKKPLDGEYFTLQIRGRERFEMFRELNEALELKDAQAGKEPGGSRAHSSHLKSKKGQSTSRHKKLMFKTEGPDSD

solubility [17]: > 10000 µg/mL
Activity [19]: Active
Structure (SMILES): CN(C)CCNc1ccnc2cc(OCc3ccc(F)cc3)ccc12
IC50 (SK-OV-3): 890 nM
Activity (HCT-116 [1]): Dose-dependent effect
TGI (HCT-116 [2]): Active
Activity (HCT-116 [3]): Active
inhibition (HCT-116 [4]): Dose-dependent effect
Activity (HCT-116 [5]): 9.3 - 10.45%
Activity (HCT-116 [6]): inactive
inhibition (DLD-1 [7]): Dose-dependent effect
Activity (RKO [8]): Tde
Activity (HCT-116 [9]): Dose-dependent effect
viability at 5 µM (HCT-116 [10]): 52.5 to 69.1%
Activity (HCT-116 [11]): 4.45%
Activity (FHC [12]): Non-Toxic
Activity (HCT-116 [13]): 8.88%
Activity (HCT-116 [14]): inactive
Activity (HCT-116 [15]): 7.61%
viability at 2.5 µM (HCT-116 [16]): 78.1%
IC50 (BGC-823): 890 nM
IC50 (HCT-116 [18]): 370 nM
Activity (HCT-116 [20]): 17.49 - 17.54%
Activity (HCT-116 [21]): inactive
Activity (HCT-116 [22]): inactive
IC50 (RKO [23]): 580 nM
Activity (HCT-116 [24]): 6.64%
Activity (HCT-116 [25]): 10.32%
Activity (DLD-1 [26]): Tde
Activity (DLD-1 [27]): Active
Activity (HCT-116 [28]): 83.72%
IC50 (HCT-116 [29]): 18100 nM
Activity (FHC [30]): Toxic
Activity (HCT-116 [31]): 4.94%
Activity (HCT-116 [32]): 5.29%
Activity (RKO [33]): Active
Activity (HCT-116 [34]): 7.29%
Activity (HCT-116 [35]): 2.65%
inhibition (HCT-116 [36]): inactive
